Test results from patent US12692269B2, “Therapeutic compounds” (Genentech, Inc., priority 2019, dated 2026).
pEC50: −log10 of the molar value.

Columns and labels:
Type in all cases: binding
TEAD3 YAP50-100 = TEAD3 YAP50-100 (Homo sapiens, UniProt Q99594); experiment: TEAD3-YAP HTRF (TR-FRET) protein-protein interaction assay; settings: TEAD3, YAP peptide 50-100, HTRF; for pEC50: read-out: TEAD3 YAP50-100 HTRF combined: EC50
Experimental: (§1) Purified His-tagged TEAD protein (YAP Binding Domain, amino acids 217-447) is pre-incubated with Europium labelled anti-His antibody tracer (Perkin Elmer Cat #AD0110). Small molecule Inhibitors are then incubated with the TEAD-Eu protein complex for 30 minutes to allow for binding to TEAD protein. Biotinylated YAP peptide for TEAD-YAP assays (AA's 50-100) or biotinylated TAZ peptide for TEAD-TAZ assays (AA's 13-57) that has been pre-incubated with streptavidin-xl665 acceptor (CIS-Bio Cat #610SAXAC) or is added to the compound-TEAD mix. The TEAD-YAP-inhibitor mixture is then incubated for 60 minutes at room temperature. All reactions are carried out in a polystyrene plate. After 60 minutes, the plate is read on a plate reader using TR-FRET mode with wavelengths of 665 nm/615 nm. If YAP or TAZ binds to TEAD as expected, a TR-FRET signal results from the proximity of YAP or TAZ and TEAD after binding. If an inhibitor such as peptide 17 (Selleckchem Cat #58164) interferes with YAP-TEAD or TAZ-TEAD binding, the disruption of the YAP or TAZ:TEAD interaction results in a decrease in TR-FRET signal. The potency of compounds as YAP:TEAD or TAZ:TEAD protein-protein interaction (PPi) inhibitors is determined by an IC50 or EC50 value generated using a non-linear four parameter curve fit.

TEAD2 YAP50-100 = TEAD2 YAP50-100 (Homo sapiens, UniProt Q15562); experiment: TEAD2-YAP HTRF (TR-FRET) protein-protein interaction assay; settings: TEAD2, YAP peptide 50-100, HTRF; for pEC50: read-out: TEAD2 YAP50-100 HTRF combined: EC50
Chain of TEAD2 YAP50-100 (Q15562 217-447): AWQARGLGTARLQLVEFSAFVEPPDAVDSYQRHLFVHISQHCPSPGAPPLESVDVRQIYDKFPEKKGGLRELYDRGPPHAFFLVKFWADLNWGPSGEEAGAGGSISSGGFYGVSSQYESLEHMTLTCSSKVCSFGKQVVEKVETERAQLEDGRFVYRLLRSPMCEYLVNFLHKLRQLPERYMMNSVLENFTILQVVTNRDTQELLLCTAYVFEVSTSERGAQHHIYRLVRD
Experimental: as §1

[1] = target: TEAD2 TAZ (amino acids 13-57) (Homo sapiens, UniProt Q15562); experiment: TEAD2-TAZ HTRF (TR-FRET) protein-protein interaction assay; settings: for TEAD2 TAZ HTRF combined: Max % Inhibition: TEAD2, TAZ peptide; for pEC50: TEAD2-TAZ HTRF, TR-FRET 665 nm/615 nm, read-out: TEAD2 TAZ HTRF combined: EC50
Chain of TEAD2 TAZ (amino acids 13-57) (Q15562 217-447): as above
Experimental: as §1

TEAD4 YAP50-100 = TEAD4 YAP50-100 (Homo sapiens, UniProt Q15561); experiment: TEAD4-YAP HTRF (TR-FRET) protein-protein interaction assay; settings: TEAD4, YAP peptide 50-100, HTRF; for pEC50: read-out: TEAD4 YAP50-100 HTRF combined: EC50
Chain of TEAD4 YAP50-100 (Q15561 217-434 limits assumed): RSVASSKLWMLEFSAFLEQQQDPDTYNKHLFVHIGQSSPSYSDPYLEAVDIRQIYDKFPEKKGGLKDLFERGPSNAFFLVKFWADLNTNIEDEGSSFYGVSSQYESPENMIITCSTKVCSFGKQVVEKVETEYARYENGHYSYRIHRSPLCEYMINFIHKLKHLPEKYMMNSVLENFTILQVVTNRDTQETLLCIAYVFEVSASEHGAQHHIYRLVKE
Experimental: as §1

[2] = target: TEAD3 TAZ (amino acids 13-57) (Homo sapiens, UniProt Q99594); experiment: TEAD3-TAZ HTRF (TR-FRET) protein-protein interaction assay; settings: for TEAD3 TAZ HTRF combined: Max % Inhibition: TEAD3, TAZ peptide; for pEC50: TEAD3-TAZ HTRF, TR-FRET 665 nm/615 nm, read-out: TEAD3 TAZ HTRF combined: EC50
Chain of TEAD3 TAZ (amino acids 13-57) (Q99594 173-435 limits assumed): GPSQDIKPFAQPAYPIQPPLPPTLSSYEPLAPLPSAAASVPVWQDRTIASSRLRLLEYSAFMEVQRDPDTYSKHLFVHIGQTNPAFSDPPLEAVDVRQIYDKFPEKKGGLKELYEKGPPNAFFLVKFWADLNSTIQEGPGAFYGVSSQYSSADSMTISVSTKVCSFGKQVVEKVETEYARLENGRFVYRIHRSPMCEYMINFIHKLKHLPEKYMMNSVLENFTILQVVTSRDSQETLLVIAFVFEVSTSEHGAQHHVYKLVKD
Experimental: as §1

[3] = target: TEAD1 TAZ (amino acids 13-57) (Homo sapiens, UniProt P28347); experiment: TEAD1-TAZ HTRF (TR-FRET) protein-protein interaction assay; settings: for TEAD1 TAZ HTRF combined: Max % Inhibition: TEAD1, TAZ peptide; for pEC50: TEAD1-TAZ HTRF, TR-FRET 665 nm/615 nm, read-out: TEAD1 TAZ HTRF combined: EC50
Chain of TEAD1 TAZ (amino acids 13-57) (P28347 167-426 limits assumed): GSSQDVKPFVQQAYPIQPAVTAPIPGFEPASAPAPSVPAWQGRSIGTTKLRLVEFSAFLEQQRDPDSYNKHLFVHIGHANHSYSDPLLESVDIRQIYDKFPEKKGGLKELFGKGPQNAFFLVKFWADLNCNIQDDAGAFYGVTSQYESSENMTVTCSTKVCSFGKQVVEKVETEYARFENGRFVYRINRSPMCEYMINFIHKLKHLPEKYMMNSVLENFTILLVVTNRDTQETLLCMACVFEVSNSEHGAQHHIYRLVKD
Experimental: as §1

[4] = target: TEAD4 TAZ (amino acids 13-57) (Homo sapiens, UniProt Q15561); experiment: TEAD4-TAZ HTRF (TR-FRET) protein-protein interaction assay; settings: for TEAD4 TAZ HTRF combined: Max % Inhibition: TEAD4, TAZ peptide; for pEC50: TEAD4-TAZ HTRF, TR-FRET 665 nm/615 nm, read-out: TEAD4 TAZ HTRF combined: EC50
Chain of TEAD4 TAZ (amino acids 13-57) (Q15561 217-434 limits assumed): as the sequence (Q15561 217-434 limits assumed) above
Experimental: as §1

TEAD1 YAP50-100 = TEAD1 YAP50-100 (Homo sapiens, UniProt P28347); experiment: TEAD1-YAP HTRF (TR-FRET) protein-protein interaction assay; settings: TEAD1, YAP peptide 50-100, HTRF; for pEC50: read-out: TEAD1 YAP50-100 HTRF combined: EC50
Chain of TEAD1 YAP50-100 (P28347 167-426 limits assumed): as the sequence (P28347 167-426 limits assumed) above
Experimental: as §1

Chain of TEAD3 YAP50-100 (Q99594 173-435 limits assumed): as the sequence (Q99594 173-435 limits assumed) above

| SMILES | TEAD3 YAP50-100 HTRF combined: Max % Inhibition (TEAD3 YAP50-100) [%] | pEC50 (TEAD3 YAP50-100) | TEAD2 YAP50-100 HTRF combined: Max % Inhibition (TEAD2 YAP50-100) [%] | TEAD2 TAZ HTRF combined: Max % Inhibition [1] [%] | pEC50 [1] | TEAD4 YAP50-100 HTRF combined: Max % Inhibition (TEAD4 YAP50-100) [%] | pEC50 (TEAD4 YAP50-100) | TEAD3 TAZ HTRF combined: Max % Inhibition [2] [%] | pEC50 [2] | TEAD1 TAZ HTRF combined: Max % Inhibition [3] [%] | pEC50 [3] | TEAD4 TAZ HTRF combined: Max % Inhibition [4] [%] | pEC50 [4] | TEAD1 YAP50-100 HTRF combined: Max % Inhibition (TEAD1 YAP50-100) [%] | pEC50 (TEAD1 YAP50-100) | pEC50 (TEAD2 YAP50-100) |
| --- | --- | --- | --- | --- | --- | --- | --- | --- | --- | --- | --- | --- | --- | --- | --- | --- |
| CCCCCCC/C=C/c1cc(=O)n2nc(-c3nccnc3C)c(C(=O)N3C[C@H](CF)[C@@H]3C)c2[nH]1 [Compound 70, 3-((2S,3S)-3-(fluoromethyl)-2-methylazetidine-1-carbonyl)-2-(3-methylpyrazin-2-yl)-5-((E)-non-1-en-1-yl)pyrazolo[1,5-a]pyrimidin-7(4H)-one] | 64.0 | 7.40 | 67.0 | 66.0 | 8.00 | 58.0 | 5.89 | 52.5 | 7.52 | 54.5 | 7.70 | 63.5 | 6.01 | 58.0 | 8.00 | – |
| O=C(c1c(C2CNCCO2)nn2c(=O)cc(-c3ccc(C4CCCCC4)cc3)[nH]c12)N1CC(CF)C1 (single isomer, unassigned) [Enantiomer B, Example 63, 5-(4-Cyclohexylphenyl)-3-[3-(fluoromethyl)azetidine-1-carbonyl]-2-morpholin-2-yl-4H-pyrazolo[1,5-a]pyrimidin-7-one] | 59.5 | 6.82 | 62.5 | 65.0 | 7.52 | 35.0 | 5.96 | 52.0 | 6.80 | 52.0 | 6.85 | 28.0 | 6.23 | 62.0 | 7.05 | 7.40 |
| N#Cc1nccnc1-c1nn2c(=O)cc(-c3ccc(C4CCCCC4)cc3)[nH]c2c1C(=O)N1CC(CF)C1 [Compound 8, 3-(5-(4-Cyclohexylphenyl)-3-(3-(fluoromethyl)azetidine-1-carbonyl)-7-oxo-4,7-dihydropyrazolo[1,5-a]pyimidin-2-yl)pyrazine-2-carbonitrile] | 69.5 | 6.96 | 51.0 | 54.0 | 7.70 | 45.5 | 6.33 | 61.0 | 6.92 | 71.0 | 6.96 | 44.5 | 6.43 | 77.0 | 7.10 | 7.70 |
| CN(C)C(=O)c1nn2c(=O)cc(-c3ccc(C4CCCCC4)cc3)[nH]c2c1C(=O)N1CC(CF)C1 [Compound 1, 5-(4-Cyclohexylphenyl)-3-(3-(fluoromethyl)azetidine-1-carbonyl)-N,N-dimethyl-7-oxo-4,7-dihydropyrazolo[1,5-a]pyrimidine-2-carboxamide] | 75.3 | 6.96 | 74.4 | 69.2 | 8.00 | 55.3 | 6.48 | 63.0 | 6.77 | 61.2 | 7.05 | 40.3 | 6.22 | 70.0 | 7.05 | 8.00 |
| Cc1nccnc1-c1nn2c(=O)cc(-c3ccc(C4CCCC4)cc3)[nH]c2c1C(=O)N1C[C@H](CF)[C@@H]1C [Compound 69, 5-(4-Cyclopentylphenyl)-3-((2S,3S)-3-(fluoromethyl)-2-methylazetidine-1-carbonyl)-2-(3-methylpyrazin-2-yl)pyrazolo[1,5-a]pyrimidin-7(4H)-one] | 80.0 | 6.96 | 76.0 | 75.5 | 8.00 | 62.5 | 6.77 | 75.5 | 6.92 | 73.5 | 7.30 | 65.5 | 6.89 | 79.0 | 7.40 | 8.00 |
| CC(CO)c1nn2c(=O)cc(-c3ccc(C4CCCCC4)cc3)[nH]c2c1C(=O)N1CC[C@@H](C#N)C1 (single isomer, unassigned) [Final product obtained using Enantiomer A from Step 4, Example 54] | 71.5 | 6.60 | 65.0 | 71.0 | 7.40 | 47.5 | 6.26 | 73.0 | 6.59 | 41.5 | 6.62 | 44.5 | 6.32 | 59.0 | 6.89 | 7.40 |
| O=C(c1nn2c(=O)cc(-c3ccc(C4CCCCC4)cc3)[nH]c2c1C(=O)N1CC(CF)C1)N1CCCC1 [Compound 36, 5-(4-Cyclohexylphenyl)-3-(3-(fluoromethyl)azetidine-1-carbonyl)-2-(pyrrolidine-1-carbonyl)pyrazolo[1,5-a]pyrimidin-7(4H)-one] | 71.0 | 6.74 | 73.5 | 73.5 | 7.70 | 48.0 | 5.99 | 60.0 | 6.70 | 60.5 | 7.10 | 38.0 | 6.07 | 70.0 | 7.15 | 7.70 |
| Cc1nccnc1-c1nn2c(=O)cc(-c3ccc(C4CCCCC4)cc3)[nH]c2c1C(=O)N(C)C [Compound 20, 5-(4-Cyclohexylphenyl)-N,N-dimethyl-2-(3-methylpyrazin-2-yl)-7-oxo-4,7-dihydropyrazolo[1,5-a]pyrimidine-3-carboxamide] | 65.5 | 7.30 | 53.5 | 50.5 | 7.70 | 37.0 | 6.09 | 56.5 | 7.15 | 63.0 | 7.30 | 34.5 | 6.03 | 72.0 | 7.30 | 7.70 |
